Earlier results in patent US4138582A, “Cycloalkenyl analogues of prostaglandin A” (Miles Laboratories, Inc., priority 1977, dated 1979).
Entries after “also recorded” stand apart in the source; their conditions may differ. Read-outs that look alike come from different tables or passages of the source.

Key:
[1] = system: female reproductive system; conditions: fertility, labor, abortion, menstruation
growth hormone = conditions: rats
gastric secretion [2] = conditions: dogs
gastric secretion [3] = conditions: man
human platelets = conditions: result in words
blood platelets = conditions: in vitro

CCCCC[C@H](O)/C=C/[C@@H]1[C@@H](C/C=C\CCCC(=O)O)[C@@H](O)C[C@H]1O [PGF2α]
effects in the female reproductive system [1]: has centragestational effects; also recorded: appears to be involved in the mechanism of menstruation; also recorded: induces spontaneous abortions in early pregnancy

CCCCC[C@H](O)/C=C/[C@H]1C=CC(=O)[C@@H]1CCCCCCC(=O)O [PGA1]
growth hormone release / synthesis (growth hormone): increased synthesis of that hormone | inhibition of gastric secretion (gastric secretion [2]): inhibit gastric secretion | inhibition of gastric secretion (gastric secretion [3]): exhibits similar activity in man

CCCCC[C@H](O)/C=C/[C@H]1[C@H](O)CC(=O)[C@@H]1C/C=C\CCCC(=O)O [PGE2]
growth hormone release / synthesis (growth hormone): increase release of growth hormone | effects in the female reproductive system [1]: exerts potent oxytocic effects in inducing labor | inhibition of gastric secretion (gastric secretion [2]): inhibit gastric secretion

CCCCC[C@H](O)/C=C/[C@H]1[C@H](O)CC(=O)[C@@H]1CCCCCCC(=O)O [PGE1]
inhibition of platelet aggregation by natural prostaglandin (human platelets): displays similar activity | growth hormone release / synthesis (growth hormone): increase release of growth hormone | inhibition of gastric secretion (gastric secretion [2]): inhibit gastric secretion | inhibition of thrombogenesis (blood platelets): inhibits thrombogenesis in vitro
